The experiment has as its target T1, AtSUC2 (Arabidopsis thaliana, UniProt Q39231).
T1 construct: gene SUC2; full coding region in plasmid pDR-R1-R2-HIS3 (derived from pDR 192), expressed in Saccharomyces cerevisiae RS453 cells
T1 sequence (Q39231 1-512): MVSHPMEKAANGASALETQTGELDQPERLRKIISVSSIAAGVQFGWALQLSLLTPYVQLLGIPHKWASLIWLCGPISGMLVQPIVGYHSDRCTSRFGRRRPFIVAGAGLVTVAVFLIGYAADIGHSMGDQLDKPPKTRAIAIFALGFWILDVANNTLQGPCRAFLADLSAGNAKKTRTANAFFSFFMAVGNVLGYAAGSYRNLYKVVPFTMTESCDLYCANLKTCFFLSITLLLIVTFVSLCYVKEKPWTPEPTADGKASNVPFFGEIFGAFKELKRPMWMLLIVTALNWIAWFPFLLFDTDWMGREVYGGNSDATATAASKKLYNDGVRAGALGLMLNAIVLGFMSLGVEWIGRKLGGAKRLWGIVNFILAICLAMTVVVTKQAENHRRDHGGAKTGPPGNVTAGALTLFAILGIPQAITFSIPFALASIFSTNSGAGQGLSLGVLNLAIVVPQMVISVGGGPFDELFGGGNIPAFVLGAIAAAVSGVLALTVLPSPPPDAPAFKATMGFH
Nature of the experiment: […]sucrose uptake into AtSUC2-transformed yeast, empty vector subtracted. In kind it is cell-based. The settings on record: read-out: Inibition^b (%).

`CC(C(=O)NCc1cn([C@@H]2O[C@H](CO)[C@@H](O)[C@H](O)[C@H]2O)nn1)n1cc(C#N)c(-c2cccc(Cl)c2Cl)c1` (stereo partly drawn) [D-GFC, D-glucose–fenpiclonil conjugate]: the inhibition at 500 µM was found to be 81.5%.
